These molecules were tested on Human non-small cell lung cancer NCI-H358 (assay: Cell proliferation assay (CellTiter-Glu) in NCI-H358). Conditions: 5 days, NCI-H358 cells, cell viability by CellTiter-Glu, compound 0.3 nM-2 μM, medium and compound renewed after 3 days.
Assay type: cell-based
Method: Cell proliferation inhibition screening method was established by CellTier-Glu® test reagent from Promega.
Human non-small cell lung cancer NCI-H358 was cultured by RPMI-1640 (Gibco®) medium with 10% fetal bovine serum (Gibco®) at 37° C., 95% air and 5% CO2, in 25 cm^2 or 75 cm^2 plastic culture bottle ((Nunc®) and passaged 2-3 times a week.
The cells were seeded on the 96 well cell culture plate (Nunc®) at the density of 2*10^3/well, 90 μL/well, and cultured at 37° C., 95% air and 5% CO2. The compound to be tested was added 24 hours later: the compound was diluted 3 times with DMSO from the concentration of 2 mM compound (dissolved in DMSO). […] 10 μL of the compound diluted by culture medium was added into the culture plate seeded with cells. The final concentration of DMSO in cell culture medium was 0.1%, and the final concentration of test compound was 0.3 nM-2 μM. The cells were incubated at 37° C. for 3 days. The culture medium was substituted with 90 μL/well fresh complete medium. According to the above diluting method of compounds, the compound to be tested was added.
After 5 days, cell viability was tested by CellTiter-Glu (Promega) kit, and finally, the semi-inhibitory concentration of compounds on cell proliferation, i.e. IC50 was calculated by Prism program.
Cc1nc(N2CCC3(CC2)Cc2ccc(NS(C)(=O)=O)cc2[C@H]3N)c(CO)nc1-c1cccc(Cl)c1Cl [Compound 3, (S)—N-(1-amino-1′-(5-(2,3-dichlorophenyl)-3-(hydroxymethyl)-6-methylpyrazin-2-yl)-1,3-dihydrospiro[indene-2,4′-piperidin]-6-yl) methanesulfonamide] showed an IC50 of 273 nM. Work on Cc1nc(N2CCC3(CC2)Cc2ccc(C(C)(C)O)cc2[C@H]3N)c(CO)nc1-c1cccc(Cl)c1Cl [Compound 4, (S)-2-(1-amino-1′-(5-(2,3-dichlorophenyl)-3-(hydroxymethyl)-6-methylpyrazin-2-yl)-1,3-dihydrospiro[indene-2,4′-piperidin]-6-yl)propan-2-01] yielded an IC50 of 817 nM. For Cc1nc(N2CCC3(CC2)Cc2ccc(C(N)=O)cc2[C@H]3N)c(CO)nc1-c1cccc(Cl)c1Cl [Compound 5, (S)-1-amino-1′-(5-(2,3-dichlorophenyl)-3-(hydroxymethyl)-6-methylpyrazin-2-yl)-1,3-dihydrospiro[indene-2,4′-piperidine]-6-carboxamide], the IC50 was 98 nM. Molecule Cc1nc(N2CCC3(CC2)Cc2ccccc2[C@H]3N)c(C(N)=O)nc1-c1cccc(Cl)c1Cl [Compound 6, (S)-3-(1-amino-1,3-dihydrospiro[indene-2,4′-piperidin]-1′-yl)-6-(2,3-dichlorophenyl)-5-methylpyrazine-2-carboxamide] has an IC50 of over 1000 nM. In the case of Cc1nc(N2CCC3(CC2)Cc2ccccc2[C@H]3N)c(C#N)nc1-c1cccc(Cl)c1Cl [Compound 7, (S)-3-(1-amino-1,3-dihydrospiro[indene-2,4′-piperidin]-1′-yl)-6-(2,3-dichlorophenyl)-5-methylpyrazine-2-carbonitrile], the IC50 is reported as over 1000 nM. For Cc1nc(N2CCC3(CC2)Cc2cccc(C#N)c2[C@H]3N)c(CO)nc1-c1cccc(Cl)c1Cl [Compound 8, (S)-1-amino-1′-(5-(2,3-dichlorophenyl)-3-(hydroxymethyl)-6-methylpyrazin-2-yl)-1,3-dihydrospiro[indene-2,4′-piperidine]-7-carbonitrile], the IC50 was over 1000 nM. Molecule Cc1nc(N2CCC3(CC2)Cc2cc(NS(C)(=O)=O)ccc2[C@H]3N)c(CO)nc1-c1cccc(Cl)c1Cl [Compound 9, (S)—N-(1-amino-1′-(5-(2,3-dichlorophenyl)-3-(hydroxymethyl)-6-methylpyrazin-2-yl)-1,3-dihydrospiro[indene-2,4′-piperidin]-5-yl)methanesulfonamide] has an IC50 of over 1000 nM. Cc1nc(N2CCC3(CC2)Cc2ccccc2[C@H]3N)c(CO)nc1-c1ccnc(N)c1Cl [Compound 10, (S)-(3-(1-amino-1,3-dihydrospiro[indene-2,4′-piperidin]-1′-yl)-6-(2-amino-3-chloropyridin-4-yl)-5-methylpyrazin-2-yl)methanol] gave an IC50 of over 1000 nM. With N[C@@H]1c2ccccc2CC12CCN(c1ncc(-c3cccc(Cl)c3Cl)nc1CO)CC2 [Compound 11, (S)-(3-(1-amino-1,3-dihydrospiro[indene-2,4′-piperidin]-1′-yl)-6-(2,3-dichlorophenyl)pyrazin-2-yl)methanol] the IC50 was 405 nM. Work on Cc1nc(N2CCC3(CC2)Cc2ccccc2[C@H]3N)c(CO)nc1-c1cccnc1C(F)(F)F [Compound 12, (S)-(3-(1-amino-1,3-dihydrospiro[indene-2,4′-piperidin]-1′-yl)-5-methyl-6-(2-(trifluoromethyl)pyridin-3-yl)pyrazin-2-yl)methanol] yielded an IC50 of over 1000 nM. In the case of COc1ccc2c(c1)[C@@H](N)C1(CCN(c3nc(C)c(-c4cccc(Cl)c4Cl)nc3CO)CC1)C2 [Compound 14], the IC50 is reported as 56 nM. Molecule Cc1cccc(-c2nc(CO)c(N3CCC4(CC3)Cc3ccccc3[C@H]4N)nc2C)c1C [Compound 15] has an IC50 of 590 nM. In the case of Cc1nc(N2CCC3(CC2)Cc2ccccc2[C@H]3N)c(CO)nc1-c1ccccc1Br [Compound 16], the IC50 is reported as 261 nM. Cc1nc(N2CCC3(CC2)Cc2ccccc2[C@H]3N)c(CO)nc1-c1ccc2[nH]ncc2c1 [Compound 17] gave an IC50 of 464 nM. For Cc1nc(N2CCC3(CC2)Cc2ccccc2[C@H]3N)c(CO)nc1-c1ccc2c(cnn2C)c1 [Compound 18], the IC50 was 630 nM. Cc1nc(N2CCC3(CC2)Cc2ccccc2[C@H]3N)c(CO)nc1-c1ccnc(Cl)c1Cl [Compound 19] showed an IC50 of 29 nM. With Cc1ccc2c(c1)[C@@H](N)C1(CCN(c3nc(C)c(-c4cccc(Cl)c4Cl)nc3CO)CC1)C2 [Compound 20] the IC50 was 48 nM. Cc1nc(N2CCC3(CC2)Cc2ccccc2[C@H]3N)c(CO)nc1-c1ccc(Cl)c(Cl)c1 [Compound 22] gave an IC50 of 195 nM. Cc1nc(N2CCC3(CC2)Cc2ccccc2[C@H]3N)c(CO)nc1-c1ccccc1Cl [Compound 23] showed an IC50 of 479 nM. With Cc1nc(N2CCC3(CC2)Cc2ccccc2[C@@H]3N)c(CO)nc1-c1cccc(Cl)c1Cl [Compound 24] the IC50 was over 1000 nM. Cc1cccc(-c2nc(CO)c(N3CCC4(CC3)Cc3ccccc3[C@H]4N)nc2C)c1Cl [Compound 25] gave an IC50 of 37 nM. Cc1nc(N2CCC3(CC2)Cc2ccccc2[C@H]3N)c(CO)nc1-c1cc2ccccc2[nH]1 [Compound 26] gave an IC50 of 449 nM. With Cc1nc(N2CCC3(CC2)Cc2cc(C(N)=O)ccc2[C@H]3N)c(CO)nc1-c1cccc(Cl)c1Cl [Compound 27] the IC50 was over 1000 nM. In the case of Cc1nc(N2CCC3(CC2)Cc2cccc(Br)c2[C@H]3N)c(CO)nc1-c1cccc(Cl)c1Cl [Compound 28], the IC50 is reported as over 1000 nM. Cc1nc(N2CCC3(CC2)Cc2ccc(N=S(C)(C)=O)cc2[C@H]3N)c(CO)nc1-c1cccc(Cl)c1Cl [Compound 29] gave an IC50 of 199 nM. For Cc1nc(N2CCC3(CC2)Cc2c(C#N)cccc2[C@H]3N)c(CO)nc1-c1cccc(Cl)c1Cl [Compound 30], the IC50 was 207 nM. In the case of Cc1nc(N2CCC3(CC2)Cc2ccc(S(C)(=O)=O)cc2[C@H]3N)c(CO)nc1-c1cccc(Cl)c1Cl [Compound 31], the IC50 is reported as 249 nM. Cc1nc(N2CCC3(CC2)Cc2ccc(Br)cc2[C@H]3N)c(CO)nc1-c1cccc(Cl)c1Cl [Compound 32] showed an IC50 of 29 nM. In the case of Cc1nc(N2CCC3(CC2)Cc2ccc(Cl)cc2[C@H]3N)c(CO)nc1-c1cccc(Cl)c1Cl [Compound 33], the IC50 is reported as 17 nM. In the case of Cc1nc(N2CCC3(CC2)Cc2ccc(C(F)(F)F)cc2[C@H]3N)c(CO)nc1-c1cccc(Cl)c1Cl [Compound 34], the IC50 is reported as 90 nM. Cc1nc(N2CCC3(CC2)Cc2cccnc2[C@H]3N)c(CO)nc1-c1cccc(Cl)c1Cl [Compound 35] was tested, and the IC50 was 101 nM. Work on Cc1nc(N2CCC3(CC2)Cc2ccc(OC(F)(F)F)cc2[C@H]3N)c(CO)nc1-c1cccc(Cl)c1Cl [Compound 36] yielded an IC50 of 31 nM. For Cc1nc(N2CCC3(CC2)Cc2ccncc2[C@H]3N)c(CO)nc1-c1cccc(Cl)c1Cl [Compound 37], the IC50 was 75 nM. Cc1nc(N2CCC3(CC2)Cc2cnccc2[C@H]3N)c(CO)nc1-c1cccc(Cl)c1Cl [Compound 38] gave an IC50 of over 1000 nM. In the case of Cc1cnc2c(c1)[C@@H](N)C1(CCN(c3nc(C)c(-c4cccc(Cl)c4Cl)nc3CO)CC1)C2 [Compound 39], the IC50 is reported as 11 nM. For Cc1nc(N2CCC3(CC2)Cc2ncccc2[C@H]3N)c(CO)nc1-c1ccnc(Cl)c1Cl [Compound 40], the IC50 was 30 nM. For COc1ccc(-c2nc(CO)c(N3CCC4(CC3)Cc3ccccc3[C@H]4N)nc2C)c(Cl)c1 [Compound 41], the IC50 was 97 nM. Cc1nc(N2CCC3(CC2)Cc2ccccc2[C@H]3N)c(CO)nc1-c1ccc(S(C)(=O)=O)cc1Cl [Compound 42] showed an IC50 of 732 nM. Work on Cc1nc(N2CCC3(CC2)Cc2ccccc2[C@H]3N)c(CO)nc1-c1cncc(Cl)c1Cl [Compound 43] yielded an IC50 of 225 nM.

— US12209074B2, “SHP2 phosphatase allosteric inhibitor” (BEIJING SHENOGEN PHARMA GROUP LTD., priority 2019, dated 2025)
